These molecules were tested on microfilariae of Dirofilaria immitis (assay: Dirofilaria immitis, Microfilaria (DiMF) In vitro Assay). Conditions: 72 h, read-out: DiMF Minimum Effective Dose (MED), approximately 72 hours incubation, microfilariae assessed for survival or paralysis.
Assay type: cell-based

SMILES | minimal effective concentration [µM]
CC(C)C[C@H]1C(=O)O[C@H](Cc2ccc(CN3CCSCC3)cc2)C(=O)N(C)[C@@H](CC(C)C)C(=O)O[C@H](C)C(=O)N(C)[C@@H](CC(C)C)C(=O)O[C@H](Cc2ccc(CN3CCSCC3)cc2)C(=O)N(C)[C@@H](CC(C)C)C(=O)O[C@H](C)C(=O)N1C [Example 9-2, (3S,6R,9S,12R,15S,18R,21S,24R)-3,9,15,21-tetraisobutyl-4,6,10,16,18,22-hexamethyl-12,24-bis(4-(thiomorpholinomethyl)benzyl)-1,7,13,19-tetraoxa-4,10,16,22-tetraazacyclotetracosan-2,5,8,11,14,17,20,23-octaone] | 0.01 to 0.1
CC(C)C[C@H]1C(=O)O[C@H](Cc2ccc(CN3CCC(F)(F)CC3)cc2)C(=O)N(C)[C@@H](CC(C)C)C(=O)O[C@H](C)C(=O)N(C)[C@@H](CC(C)C)C(=O)O[C@H](Cc2ccc(CN3CCC(F)(F)CC3)cc2)C(=O)N(C)[C@@H](CC(C)C)C(=O)O[C@H](C)C(=O)N1C [Example 9-4, (3S,6R,9S,12R,15S,18R,21S,24R)-6,18-bis(4-((4,4-difluoropiperidin-1-yl)methyl)benzyl)-3,9,15,21-tetraisobutyl-4,10,12,16,22,24-hexamethyl-1,7,13,19-tetraoxa-4,10,16,22-tetraazacyclotetracosan-2,5,8,11,14,17,20,23-octaone] | 0.01 to 0.1
CC(C)C[C@H]1C(=O)O[C@H](Cc2ccc(N3CCCC(F)(F)C3)cc2)C(=O)N(C)[C@@H](CC(C)C)C(=O)O[C@H](C)C(=O)N(C)[C@@H](CC(C)C)C(=O)O[C@H](Cc2ccc(CN3CCCC(F)(F)C3)cc2)C(=O)N(C)[C@@H](CC(C)C)C(=O)O[C@H](C)C(=O)N1C [Example 9-5, (3S,6R,9S,12R,15S,18R,21S,24R)-6-(4-(3,3-difluoropiperidin-1-yl)benzyl)-18-(4-((3,3-difluoropiperidin-1-yl)methyl)benzyl)-3,9,15,21-tetraisobutyl-4,10,12,16,22,24-hexamethyl-1,7,13,19-tetraoxa-4,10,16,22-tetraazacyclotetracosan-2,5,8,11,14,17,20,23-octaone] | 0.01 to 0.1
CC(C)C[C@H]1C(=O)O[C@H](Cc2ccc(Cn3cnnn3)cc2)C(=O)N(C)[C@@H](CC(C)C)C(=O)O[C@H](C)C(=O)N(C)[C@@H](CC(C)C)C(=O)O[C@H](Cc2ccc(Cn3cnnn3)cc2)C(=O)N(C)[C@@H](CC(C)C)C(=O)O[C@H](C)C(=O)N1C [Example 9-18, (3S,6R,9S,12R,15S,18R,21S,24R)-6,18-bis(4-((1H-tetrazol-1-yl)methyl)benzyl)-3,9,15,21-tetraisobutyl-4,10,12,16,22,24-hexamethyl-1,7,13,19-tetraoxa-4,10,16,22-tetraazacyclotetracosan-2,5,8,11,14,17,20,23-octaone] | 0.01 to 0.1
CC(C)C[C@H]1C(=O)O[C@H](Cc2ccc(Cn3ccc(Br)cc3=O)cc2)C(=O)N(C)[C@@H](CC(C)C)C(=O)O[C@H](C)C(=O)N(C)[C@@H](CC(C)C)C(=O)O[C@H](Cc2ccc(Cn3ccc(Br)cc3=O)cc2)C(=O)N(C)[C@@H](CC(C)C)C(=O)O[C@H](C)C(=O)N1C [Example 9-20, (3S,6R,9S,12R,15S,18R,21S,24R)-6,18-bis(4-((4-bromo-2-oxopyridin-1 (2H)-yl)methyl)benzyl)-3,9,15,21-tetraisobutyl-4,10,12,16,22,24-hexamethyl-1,7,13,19-tetraoxa-4,10,16,22-tetraazacyclotetracosan-2,5,8,11,14,17,20,23-octaone] | 0.01 to 0.1
CC(C)C[C@H]1C(=O)O[C@H](Cc2ccc(Cn3ccc(Cl)cc3=O)cc2)C(=O)N(C)[C@@H](CC(C)C)C(=O)O[C@H](C)C(=O)N(C)[C@@H](CC(C)C)C(=O)O[C@H](Cc2ccc(Cn3ccc(Cl)cc3=O)cc2)C(=O)N(C)[C@@H](CC(C)C)C(=O)O[C@H](C)C(=O)N1C [Example 9-21, (3S,6R,9S,12R,15S,18R,21S,24R)-6,18-bis(4-((4-chloro-2-oxopyridin-1 (2H)-yl)methyl)benzyl)-3,9,15,21-tetraisobutyl-4,10,12,16,22,24-hexamethyl-1,7,13,19-tetraoxa-4,10,16,22-tetraazacyclotetracosan-2,5,8,11,14,17,20,23-octaone] | 0.001 to 0.01
Cc1ccn(Cc2ccc(C[C@H]3OC(=O)[C@H](CC(C)C)N(C)C(=O)[C@@H](C)OC(=O)[C@H](CC(C)C)N(C)C(=O)[C@@H](Cc4ccc(Cn5ccc(C)cc5=O)cc4)OC(=O)[C@H](CC(C)C)N(C)C(=O)[C@@H](C)OC(=O)[C@H](CC(C)C)N(C)C3=O)cc2)c(=O)c1 [Example 9-27, (3S,6R,9S,12R,15S,18R,21S,24R)-3,9,15,21-tetraisobutyl-4,6,10,16,18,22-hexamethyl-12,24-bis(4-((4-methyl-2-oxopyridin-1 (2H)-yl)methyl)benzyl)-1,7,13,19-tetraoxa-4,10,16,22-tetraazacyclotetracosan-2,5,8,11,14,17,20,23-octaone] | 0.01 to 0.1
CC(C)C[C@H]1C(=O)O[C@H](Cc2ccc(Cn3nnc4ccccc43)cc2)C(=O)N(C)[C@@H](CC(C)C)C(=O)O[C@H](C)C(=O)N(C)[C@@H](CC(C)C)C(=O)O[C@H](Cc2ccc(Cn3nnc4ccccc43)cc2)C(=O)N(C)[C@@H](CC(C)C)C(=O)O[C@H](C)C(=O)N1C [Example 9-29, (3S,6R,9S,12R,15S,18R,21S,24R)-6,18-bis(4-((1H-benzo[d][1,2,3]triazol-1-yl)methyl)benzyl)-3,9,15,21-tetraisobutyl-4,10,12,16,22,24-hexamethyl-1,7,13,19-tetraoxa-4,10,16,22-tetraazacyclotetracosan-2,5,8,11,14,17,20,23-octaone] | 0.01 to 0.1
CC(C)C[C@H]1C(=O)O[C@H](Cc2ccc(Cn3cccc3/C(N)=N/O)cc2)C(=O)N(C)[C@@H](CC(C)C)C(=O)O[C@H](C)C(=O)N(C)[C@@H](CC(C)C)C(=O)O[C@H](Cc2ccc(Cn3cccc3C(N)=NO)cc2)C(=O)N(C)[C@@H](CC(C)C)C(=O)O[C@H](C)C(=O)N1C [Example 9-30, N′-hydroxy-1-[[4-[[(2R,5S,8R,11S,14R,17S,20R,23S)-14-[[4-[[2-[(Z)—N′-hydroxycarbamimidoyl]pyrrol-1-yl]methyl]phenyl]methyl]-5,11,17,23-tetraisobutyl-4,8,10,16,20,22-hexamethyl-3,6,9,12,15,18,21,24-octaoxo-1,7,13,19-tetraoxa-4,10,16,22-tetrazacyclotetracos-2-yl]methyl]phenyl]methyl]pyrrole-2-carboxamidine] | 0.001 to 0.01
CC(C)C[C@H]1C(=O)O[C@H](Cc2ccc(Cn3cc(-c4ccccc4)nn3)cc2)C(=O)N(C)[C@@H](CC(C)C)C(=O)O[C@H](C)C(=O)N(C)[C@@H](CC(C)C)C(=O)O[C@H](Cc2ccccc2)C(=O)N(C)[C@@H](CC(C)C)C(=O)O[C@H](C)C(=O)N1C [Example 9-33, (3S,6R,9S,12R,15S,18R,21S,24R)-6-benzyl-3,9,15,21-tetraisobutyl-4,10,12,16,22,24-hexamethyl-18-(4-((4-phenyl-1H-1,2,3-triazol-1-yl)methyl)benzyl)-1,7,13,19-tetraoxa-4,10,16,22-tetraazacyclotetracosan-2,5,8,11,14,17,20,23-octaone] | 0.01 to 0.1
CC(C)C[C@H]1C(=O)O[C@H](Cc2ccc(Cn3cc4ccccc4n3)cc2)C(=O)N(C)[C@@H](CC(C)C)C(=O)O[C@H](C)C(=O)N(C)[C@@H](CC(C)C)C(=O)O[C@H](Cc2ccc(Cn3cc4ccccc4n3)cc2)C(=O)N(C)[C@@H](CC(C)C)C(=O)O[C@H](C)C(=O)N1C [Example 9-35, (3S,6R,9S,12R,15S,18R,21S,24R)-6,18-bis(4-((2H-indazol-2-yl)methyl)benzyl)-3,9,15,21-tetraisobutyl-4,10,12,16,22,24-hexamethyl-1,7,13,19-tetraoxa-4,10,16,22-tetraazacyclotetracosan-2,5,8,11,14,17,20,23-octaone] | 0.01 to 0.1
CC(C)C[C@H]1C(=O)O[C@H](Cc2ccc(Cn3cc4c(n3)CCC4)cc2)C(=O)N(C)[C@@H](CC(C)C)C(=O)O[C@H](C)C(=O)N(C)[C@@H](CC(C)C)C(=O)O[C@H](Cc2ccc(Cn3cc4c(n3)CCC4)cc2)C(=O)N(C)[C@@H](CC(C)C)C(=O)O[C@H](C)C(=O)N1C [Example 9-42, (3S,6R,9S,12R,15S,18R,21S,24R)-6,18-bis[[4-(5,6-dihydro-4H-cyclopenta[c]pyrazol-2-ylmethyl)phenyl]methyl]-3,9,15,21-tetraisobutyl-4,10,12,16,22,24-hexamethyl-1,7,13,19-tetraoxa-4,10,16,22-tetrazacyclotetracosane-2,5,8,11,14,17,20,23-octaone] | 0.01 to 0.1
CC(C)C[C@H]1C(=O)O[C@H](Cc2ccc(Cn3ncc4cccnc43)cc2)C(=O)N(C)[C@@H](CC(C)C)C(=O)O[C@H](C)C(=O)N(C)[C@@H](CC(C)C)C(=O)O[C@H](Cc2ccc(Cn3ncc4cccnc43)cc2)C(=O)N(C)[C@@H](CC(C)C)C(=O)O[C@H](C)C(=O)N1C [Example 9-49, (3S,6R,9S,12R,15S,18R,21S,24R)-6,18-bis(4-((1H-pyrazolo[3,4-b]pyridin-1-yl)methyl)benzyl)-3,9,15,21-tetraisobutyl-4,10,12,16,22,24-hexamethyl-1,7,13,19-tetraoxa-4,10,16,22-tetraazacyclotetracosan-2,5,8,11,14,17,20,23-octaone] | 0.001 to 0.01
CC(C)C[C@H]1C(=O)O[C@H](Cc2ccc(CN3CCS(=O)(=O)c4cccnc43)cc2)C(=O)N(C)[C@@H](CC(C)C)C(=O)O[C@H](C)C(=O)N(C)[C@@H](CC(C)C)C(=O)O[C@H](Cc2ccc(CN3CCS(=O)(=O)c4cccnc43)cc2)C(=O)N(C)[C@@H](CC(C)C)C(=O)O[C@H](C)C(=O)N1C [Example 9-62, (3S,6R,9S,12R,15S,18R,21S,24R)-6,18-bis(4-((1,1-dioxido-2,3-dihydro-4H-pyrido[3,2-b][1,4]thiazin-4-yl)methyl)benzyl)-3,9,15,21-tetraisobutyl-4,10,12,16,22,24-hexamethyl-1,7,13,19-tetraoxa-4,10,16,22-tetraazacyclotetracosan-2,5,8,11,14,17,20,23-octaone] | 0.01 to 0.1

Source: patent US11331369B2, “Endoparasitic depsipeptides” (Zoetis Services LLC, priority 2017, dated 2022)
